Target: FAS (Mus musculus, UniProt P19096)
Assay: FAS activity of treated 3T3-L1 cells (method of Kelley, NADPH oxidation)
Format: cell-based
Conditions: C75 25 µM, 6 days; compared with rAIM
Description: The influence of AIM on FAS activity of adipocyte or adipose tissue was examined. FAS activity was measured by the method of Kelley (Kelley et al., Biochem. J., 1986, 235:87-90) with slight modification. 3T3-L1 adipocytes, or lysates of adipose tissue of obese mice was mixed with acetyl-CoA and NADPH (0.2 M calcium phosphate buffer [pH 7.0] containing 0.4 mM EDTA), and the mixture was placed in a spectrophotometer cuvette and maintained at 30°C. 20 µl of malonyl-CoA solution (0.2 mM) was added to start an enzyme reaction and decrease of OD was measured at a chart speed 2 cm/min. Based on the results, the enzyme activity of FAS was evaluated using the molar extinction coefficient of oxidized NADPH as 6220.
First, the FAS activity of 3T3-L1 cells treated for 6 days in the presence or absence of rAIM (5 µg/ml), and in the presence of C75 (25 µM) was measured. […] The samples were dissolved (lysed) and the FAS activity was measured. The data was converted to that based on FAS protein, according to the results of WB performed using the same sample.

Chain of FAS (P19096 whole entry): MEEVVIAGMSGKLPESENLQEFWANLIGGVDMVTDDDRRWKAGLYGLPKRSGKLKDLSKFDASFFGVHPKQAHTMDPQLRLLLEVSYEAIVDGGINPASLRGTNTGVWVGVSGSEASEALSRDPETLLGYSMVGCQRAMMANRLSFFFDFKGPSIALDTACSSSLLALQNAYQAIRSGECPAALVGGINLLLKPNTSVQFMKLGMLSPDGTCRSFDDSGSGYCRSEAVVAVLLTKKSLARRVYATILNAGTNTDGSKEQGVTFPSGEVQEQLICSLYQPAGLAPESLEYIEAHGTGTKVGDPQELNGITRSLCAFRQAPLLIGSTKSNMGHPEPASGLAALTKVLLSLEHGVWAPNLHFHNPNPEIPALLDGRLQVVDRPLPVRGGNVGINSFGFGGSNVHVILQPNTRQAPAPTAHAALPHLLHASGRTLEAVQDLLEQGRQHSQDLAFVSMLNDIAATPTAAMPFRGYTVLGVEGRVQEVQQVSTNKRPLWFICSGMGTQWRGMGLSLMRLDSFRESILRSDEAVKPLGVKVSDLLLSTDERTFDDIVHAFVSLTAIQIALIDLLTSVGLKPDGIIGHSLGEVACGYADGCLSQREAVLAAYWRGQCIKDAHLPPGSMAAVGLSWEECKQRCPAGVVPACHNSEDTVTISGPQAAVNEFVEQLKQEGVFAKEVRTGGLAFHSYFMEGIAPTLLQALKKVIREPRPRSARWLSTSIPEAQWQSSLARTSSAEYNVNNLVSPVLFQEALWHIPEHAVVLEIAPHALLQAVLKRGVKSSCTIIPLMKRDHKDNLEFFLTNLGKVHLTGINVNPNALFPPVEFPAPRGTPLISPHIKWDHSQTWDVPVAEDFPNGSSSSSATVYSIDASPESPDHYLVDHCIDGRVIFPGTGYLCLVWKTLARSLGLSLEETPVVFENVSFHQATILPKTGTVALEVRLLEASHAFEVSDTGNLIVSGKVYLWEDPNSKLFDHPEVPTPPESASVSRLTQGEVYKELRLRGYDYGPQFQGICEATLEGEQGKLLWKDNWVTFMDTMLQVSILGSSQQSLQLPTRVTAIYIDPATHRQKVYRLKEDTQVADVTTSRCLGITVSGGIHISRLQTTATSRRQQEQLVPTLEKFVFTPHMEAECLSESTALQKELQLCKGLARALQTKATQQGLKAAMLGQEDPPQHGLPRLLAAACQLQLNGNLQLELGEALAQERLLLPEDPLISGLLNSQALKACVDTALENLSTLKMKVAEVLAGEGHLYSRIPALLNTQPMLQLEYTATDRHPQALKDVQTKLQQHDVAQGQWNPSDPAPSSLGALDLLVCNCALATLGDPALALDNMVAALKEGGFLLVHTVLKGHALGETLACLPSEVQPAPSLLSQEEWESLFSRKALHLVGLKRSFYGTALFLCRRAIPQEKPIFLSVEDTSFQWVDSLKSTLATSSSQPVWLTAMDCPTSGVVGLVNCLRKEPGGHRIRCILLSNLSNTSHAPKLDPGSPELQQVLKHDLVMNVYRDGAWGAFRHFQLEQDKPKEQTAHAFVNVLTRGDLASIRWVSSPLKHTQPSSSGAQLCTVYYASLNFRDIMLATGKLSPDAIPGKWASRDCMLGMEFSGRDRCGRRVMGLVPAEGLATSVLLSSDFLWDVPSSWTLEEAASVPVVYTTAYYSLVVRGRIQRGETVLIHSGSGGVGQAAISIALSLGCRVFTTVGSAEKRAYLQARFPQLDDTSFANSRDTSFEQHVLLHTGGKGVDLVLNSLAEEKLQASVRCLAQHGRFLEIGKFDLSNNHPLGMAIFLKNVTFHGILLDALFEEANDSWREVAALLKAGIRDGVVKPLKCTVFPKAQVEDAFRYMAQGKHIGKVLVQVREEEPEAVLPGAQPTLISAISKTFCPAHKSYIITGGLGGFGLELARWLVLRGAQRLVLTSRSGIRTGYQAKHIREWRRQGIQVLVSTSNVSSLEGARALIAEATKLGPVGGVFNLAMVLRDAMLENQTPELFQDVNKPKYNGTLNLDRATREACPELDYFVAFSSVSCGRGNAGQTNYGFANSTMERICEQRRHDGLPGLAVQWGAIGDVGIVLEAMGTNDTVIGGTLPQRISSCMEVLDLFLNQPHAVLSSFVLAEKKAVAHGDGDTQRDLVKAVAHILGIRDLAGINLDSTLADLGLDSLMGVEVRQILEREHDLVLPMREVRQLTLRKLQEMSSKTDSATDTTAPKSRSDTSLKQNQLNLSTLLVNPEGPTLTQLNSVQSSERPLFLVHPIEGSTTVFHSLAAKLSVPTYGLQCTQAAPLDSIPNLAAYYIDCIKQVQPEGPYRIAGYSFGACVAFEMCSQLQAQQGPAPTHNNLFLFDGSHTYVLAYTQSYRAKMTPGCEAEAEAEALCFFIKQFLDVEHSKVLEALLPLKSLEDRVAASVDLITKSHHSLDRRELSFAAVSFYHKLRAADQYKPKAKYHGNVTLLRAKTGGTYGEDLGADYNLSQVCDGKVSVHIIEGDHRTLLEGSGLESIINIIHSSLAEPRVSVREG

C=C1C(=O)OC(CCCCCCCC)C1C(=O)O (stereo not shown) [C75]
level of suppression of FAS activity in 3T3-L1 adipocytes: level of suppression was the same
